Assay results reported in patent US4029789A, “1-[2'-(α-Furoyl or α-thienoyl)eth-1'-yl]-2-(4"-cinnamyl piperazin-1"-yl methyl)benzimidazoles and method of using same” (Delalande S.A., priority 1974, dated 1977).
Entries after “also recorded” stand apart in the source; their conditions may differ. Where two headings read alike, the source gives them in different places.

Tests used:
[1] = test system: morphinic respiratory depression; assay: Respiratory analeptic properties, vigil rabbit, morphinic respiratory depression; format: in vivo; settings: for respiratory analeptic activity (in words): i.v., vigil rabbit, comparison with reference compound
Protocol: The compounds of formula (I) administered intravenously to a vigil rabbit, are capable of opposing morphinic respiratory depression (subcutaneous injection of 50 mg/kg of morphine hydrochloride).
.- Respiratory analeptic properties were studied in a vigil rabbit subjected to a morphinic respiratory depression. The products studied were administered intravenously.

[2] = test system: bronchoconstriction caused by acetylcholine; assay: Anti-bronchoconstriction, anaesthetized guinea-pig, acetylcholine i.v. (Konzett and Rossler); format: in vivo; settings: for ED50: Cavia porcellus, iv, compound i.v., read-out: DE 50 (the source's name); for activity by route of administration: i.v. and i.d.; for anti-bronchoconstriction properties (in words): guinea-pig, comparison with compound of patent No 3 862 177
Protocol: (§1) Injected intravenously or intraduodenally, the compounds of formula (I) are capable of opposing bronchoconstriction caused in a guinea-pig anaesthetized with ethylurethane at 20 % (1.5 g/kg intraperitoneally) by intravenous injection of histamine ([…]/i.v.), of acetylcholine (40 μg/kg/i.v.), of bradykinine (5 μg/kg/i.v.) or of serotinine (20 μg/kg/i.v.).
(§2) .- The anti-bronchoconstriction properties were studied in an anaesthetized guinea-pig and in a vigil guinea-pig.
(§3) The antagonism exercised by the products studied to a bronchoconstriction due to an intravenous injection of acetylcholine, histamine or bradykinine was evaluated according to Konzett and Rossler's method.
(§4) The products studied were administered intraduodenally or intravenously.

gastric secretion [3] = assay: Gastric antisecretory activity, vigil rat, pyloric binding for 4 hours; format: in vivo; settings: for ED50: Rattus norvegicus, 4 h, i.d.; for gastric antisecretory properties (in words): comparison with compound No. 7110 / patent No 3 862 177
Protocol: .- The gastric antisecretory activity was studied in a vigil rat fitted with a pyloric binding for 4 hours, according to Shay and al.
It was evaluated by diminutions in the volume, the concentration and the flow of free acid in the gastric juice. The compounds tested were administered intraduodenally.

constraint ulcers = assay: Constraint ulcers, rat, 7 hours; format: in vivo
Protocol: (a) Constraint ulcers: the compounds of formula (I), administered orally, reduce the area of ulcerations caused in a rat placed under constraint. Thus, compound No 73 0466 administered at a dose of 5 mg/kg/po, reduces by 78% the area of the ulcerations caused by being put under constraint for 7 hours.
(§5) .- The anti-ulcerous activity was evaluated by the percentage of protection (quantal response) against ulcers caused in a rat by binding the pylorus or by putting under constraint for 7 hours.
(§6) The products were administered intraduodenally (Shay's ulcer) or orally (constraint ulcer).

Acute toxicity, mouse = settings: in vivo
[4] = test system: bronchoconstriction caused by bradykinine; assay: Anti-bronchoconstriction, anaesthetized guinea-pig, bradykinine i.v. (Konzett and Rossler); format: in vivo
Protocol: as §1, §2, §3, §4

Shay's ulcers = assay: Shay's ulcers, rat, binding the pylorus; format: in vivo; settings: for anti-ulcerous properties (in words): comparison with compound No. 7110 / patent No 3 862 177
Protocol: (b) Shay's ulcers: the compounds of formula (I) administered intraduodenally reduce the area of ulcerations induce in a rat by binding the pylorus. Thus, compound code No 73 0466 administered in a dose of 20 mg/kg/i.d. reduces by 80 % Shay's ulcer.
as §5, §6

[5] = test system: bronchoconstriction caused by histamine; assay: Anti-bronchoconstriction, anaesthetized guinea-pig, histamine i.v. (Konzett and Rossler); format: in vivo; settings: for Percentage of inhibition of the bronchoconstriction: histamine
Protocol: as §1, §2, §3, §4

[6] = test system: contractural action of histamine on the ileum; assay: Spasmolytic, ileum of guinea-pig, histamine
Protocol: (§7) Compound code number 73 0457, introduced into the conserving medium, is capable of opposing the contractural action of histamine and bradykinine on the ileum of a guinea-pig, DI 50 being respectively 0.16 μg/ml and 3.1 μg/ml, prevents spasms in the uterus of a female rat induced by serotonine (DI 50= 0.8 μg/ml) and opposes the contracting effect of acetylcholine on the duodenum of a rat (DI 50= 0.8μg/ml).

[7] = test system: contracting effect of acetylcholine on the duodenum; assay: Spasmolytic, duodenum of rat, acetylcholine
Protocol: as §7

[8] = test system: contractural action of bradykinine on the ileum; assay: Spasmolytic, ileum of guinea-pig, bradykinine
Protocol: as §7

[9] = test system: bronchospasm caused by histamine aerosol; assay: Protection of vigil guinea-pig against histamine aerosol bronchospasm; format: in vivo
Protocol: These properties are also observed by administering the compounds of formula (I) orally, to a vigil guinea-pig subjected to a histamine aerosol (exposition for 10 minutes to an aerosol obtained from an aqueous solution containing 0.4 % histamine and 10 % glycerine), the criterium of activity being the total protection from the fall caused by the bronchospasm.

[10] = test system: bronchoconstriction caused by serotonine; assay: Anti-bronchoconstriction, anaesthetized guinea-pig, serotonine i.v.; format: in vivo; settings: Cavia porcellus, iv, compound i.v., read-out: DE 50 (the source's name)
Protocol: as §1

[11] = test system: bronchospasm caused by acetylcholine aerosol; assay: Protection of vigil guinea-pig against acetylcholine aerosol bronchospasm; format: in vivo
[12] = test system: spasms in the uterus induced by serotonine; assay: Spasmolytic, uterus of female rat, serotonine
Protocol: as §7

gastric secretion [13] = assay: Gastric antisecretory properties, anaesthetized rat with Shay binding; format: in vivo; settings: 2 mg/kg i.d.
Text: The compounds of formula (I), administered intraduodenally to an anaesthetized rat provided with a Shay binding are capable of reducing the gastric secretion.

[14] = acetylcholine, anaesthetized guinea-pig
[15] = read-out: Gastric antisecretory action, Volume, D.E. 50
[16] = po, 2000 mg/kg, p.o., 2 000 mg/kg, read-out: Percentage mortality, orally
[17] = acetylcholine i.v., 25 mg/kg i.d.

## O=C(CCn1c(CN2CCN(CC=Cc3ccccc3)CC2)nc2ccccc21)c1ccccc1 [7 110, reference compound]
[1]; 4 mg/kg i.v.
  Duration of effect: 0 min
  Percentage increase, respiratory amplitude: 0%
  Percentage increase, respiratory frequency: 0%
[2]; acetylcholine i.v.
  ED50: 2.4 mg/kg
[2]; acetylcholine i.v., 30 mg/kg i.d.
  Anti-bronchoconstriction action: 0
[2]; [14]
  activity by route of administration: acts solely intravenously
Gastric secretion [3]; [15]
  ED50: 2.5 mg/kg
Constraint ulcers; Rattus norvegicus, po, 7 h, p.o., read-out: Anti-ulcerous action, Constraint ulcer for 7 hours, D.E. 50
  ED50: 4.2 mg/kg
Acute toxicity, mouse; po, 4800 mg/kg, p.o., 4 800 mg/kg, read-out: Acute toxicity (p.o.), percentage mortality
  mortality: 30%
[4]; Cavia porcellus, bradykinine i.v., compound i.d., read-out: D.E. 50 (the source's name)
  ED50: 30 mg/kg
Shay's ulcers; Rattus norvegicus, i.d., read-out: Anti-ulcerous action, Shay's ulcer, D.E. 50
  ED50: 28.5 mg/kg

## O=C(CCn1c(CN2CCN(CC=Cc3ccccc3)CC2)nc2ccccc21)c1ccco1 [73 0457, dimaleate of 1-[2'-(α-furoyl)eth-1' yl]-2-(4"-cinnamylpiperazin 1" ylmethyl) benzimidazole]
[1]; 10 mg/kg i.v.
  Duration of effect: 25 min
[1]
  respiratory analeptic activity (in words): considerable respiratory analeptic activity; also recorded: considerable anti-bronchoconstriction and respiratory analeptic properties
[5]; 12.5 mg/kg i.d.
  Percentage of inhibition of the bronchoconstriction: 100%
[2]; acetylcholine i.v.
  ED50: < 4 mg/kg
[2]; acetylcholine i.v., 0.0625 mg/kg i.v.
  Anti-bronchoconstriction action, percentage: 63%
[2]; acetylcholine, 12.5 mg/kg i.d.
  Percentage of inhibition of the bronchoconstriction: 70%
[2]; acetylcholine, 12.5 mg/kg i.d., Table I
  Duration: > 90 min
[2]; acetylcholine, 12.5 mg/kg i.d., Table IV
  Duration: > 90 min
[2]; [14]
  times lower active dose than that of compound No. 7110: 38 times
  activity by route of administration: active in this same test, not only when administered intravenously but intraduodenally
[2]
  anti-bronchoconstriction properties (in words): considerable anti-bronchoconstriction and respiratory analeptic properties
Gastric secretion [3]; read-out: Gastric antisecretory action, Free acid concentration, D.E. 50
  ED50: 55 mg/kg
Gastric secretion [3]; read-out: Gastric antisecretory action, Free acid flow, D.E. 50
  ED50: 15 mg/kg
Gastric secretion [3]; [15]
  ED50: 11.5 mg/kg
Gastric secretion [3]
  gastric antisecretory properties (in words): lower gastric antisecretory and anti-ulcerous activities
Acute toxicity, mouse; iv, 48 mg/kg, i.v., at 48 ± 2.5 mg/kg, read-out: Percentage mortality, intravenously
  mortality: ~50%
Acute toxicity, mouse; iv, read-out: Dose administered (mouse), intravenously, DE 50
  LD50: 48 ± 2.5 mg/kg
Acute toxicity, mouse; [16]
  mortality: 0%
[6]
  DI 50: 0.16 µg/mL
[4]; bradykinine, 8 mg/kg i.v.
  Percentage of inhibition of the bronchoconstriction: 75%
Shay's ulcers; 50 mg/kg i.d.
  Anti-ulcerous action, Shay's ulcer (percentage of protection, quantal response): 0
Shay's ulcers
  anti-ulcerous properties (in words): lower gastric antisecretory and anti-ulcerous activities
[7]
  DI 50: 0.8 µg/mL
[8]
  DI 50: 3.1 µg/mL
[9]; 1.56 mg/kg p.o.
  percentage of animals totally protected: 50%
[9]; 100 mg/kg p.o.
  Duration: > 6 h
  Percentage of inhibition of the bronchoconstriction: 100%
[10]
  ED50: < 4 mg/kg
[11]; 12.5 mg/kg p.o.
  percentage of animals totally protected: 50%
[12]
  DI 50: 0.8 µg/mL

## O=C(CCn1c(CN2CCN(CC=Cc3ccccc3)CC2)nc2ccccc21)c1cccs1 [73 0466, dimaleate of 1-[2'(α -thienoyl)eth-1'yl]-2-(4"-cinnamylpiperazin 1"ylmethyl)benzimidazole]
[1]
  respiratory analeptic activity (in words): considerable anti-bronchoconstriction and respiratory analeptic properties
Gastric secretion [13]
  reduction of the volume of the gastric secretion: 28%
[5]; Cavia porcellus, histamine i.v., compound i.d., read-out: D.E. 50 (the source's name)
  ED50: 25 mg/kg
[5]; 25 mg/kg i.d.
  Percentage of inhibition of the bronchoconstriction: 50%
[2]; [17]
  Anti-bronchoconstriction action, percentage: 95%
  Duration of anti-bronchoconstriction action: > 30 min
[2]; acetylcholine, 100 mg/kg i.d.
  Duration: 60 min
  Percentage of inhibition of the bronchoconstriction: 100%
[2]; [14]
  activity by route of administration: active in this same test, not only when administered intravenously but intraduodenally
[2]
  anti-bronchoconstriction properties (in words): considerable anti-bronchoconstriction and respiratory analeptic properties
Gastric secretion [3]; 2 mg/kg i.d.
  Gastric antisecretory action, Free acid concentration: inactive
Gastric secretion [3]
  gastric antisecretory properties (in words): lower gastric antisecretory and anti-ulcerous activities
Constraint ulcers; 5 mg/kg p.o., constraint for 7 hours
  reduction of the area of the ulcerations: 78%
Acute toxicity, mouse; [16]
  mortality: 30%
Shay's ulcers; 20 mg/kg i.d.
  reduction of Shay's ulcer (area of ulcerations): 80%
Shay's ulcers
  anti-ulcerous properties (in words): lower gastric antisecretory and anti-ulcerous activities
[9]; 50 mg/kg p.o.
  percentage of animals totally protected: 67%
[11]; 50 mg/kg p.o.
  percentage of animals totally protected: 100%

## prethcamide [MICORENE, reference compound]
[1]; 10 mg/kg i.v.
  Duration of effect: 7 min
